Results from PubChem BioAssay (NCI).
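Cells were grown in 96-well plates and exposed to each compound for 48 hours at five concentrations; endpoints were interpolated linearly between bracketing concentrations, or set to the highest concentration if not reached. Abbreviation: GI50, concentration required for 50% inhibition of growth. TGI: total growth inhibition.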

Experiments:
Experiment in all cases: NCI-60 cell line screen, 48 h
[1] = test system: RXF 393 renal
[2] = test system: EKVX NSCLC
[3] = test system: TK-10 renal
[4] = test system: NCI/ADR-RES ovarian
[5] = test system: SK-MEL-2 melanoma
[6] = test system: SF-268 CNS
[7] = test system: NCI-H522 lung
[8] = test system: SK-MEL-28 melanoma
[9] = test system: A549 NSCLC
[10] = test system: SR leukemia
[11] = test system: MDA-MB-231 breast
[12] = test system: OVCAR-5 ovarian
[13] = test system: BT-549 breast
[14] = test system: SK-OV-3 ovarian
[15] = test system: RPMI-8226 leukemia
[16] = test system: SF-295 CNS
[17] = test system: K-562 leukemia
[18] = test system: NCI-H23 lung
[19] = test system: MCF7 breast
[20] = test system: HCT-116 colon
[21] = test system: SW-620 colon
[22] = test system: IGROV1 ovarian
[23] = test system: HCT-15 colon
[24] = test system: UO-31 renal
[25] = test system: SF-539 CNS
[26] = test system: SN12C renal
[27] = test system: DU-145 prostate
[28] = test system: SK-MEL-5 melanoma
[29] = test system: PC-3 prostate
[30] = test system: SNB-19 CNS
[31] = test system: NCI-H460 lung
[32] = test system: OVCAR-8 ovarian
[33] = test system: T-47D breast
[34] = test system: MDA-MB-435
[35] = test system: COLO 205 colon
[36] = test system: M14 melanoma
[37] = test system: OVCAR-3 ovarian
[38] = test system: HOP-92 NSCLC
[39] = test system: HS 578T breast
[40] = test system: U251 CNS
[41] = test system: ACHN renal
[42] = test system: HOP-62 NSCLC
[43] = test system: CAKI-1 renal
[44] = test system: UACC-62 melanoma
[45] = test system: UACC-257 melanoma
[46] = test system: LOX IMVI melanoma
[47] = test system: SNB-75 CNS
[48] = test system: 786-0 renal
[49] = test system: A498 renal
[50] = test system: HL-60(TB) leukemia
[51] = test system: KM12 colon

SMILES: CSc1cc(N=Nc2nc3ccccc3s2)c2ccccc2c1O
- GI50 [1]: 5.99 µM
- TGI [1]: 14.3 µM
- GI50 [2]: 7.2 µM
- TGI [2]: 16.4 µM
- GI50 [3]: 12.6 µM
- TGI [3]: 28.7 µM
- GI50 [4]: 7.17 µM
- TGI [4]: 20.7 µM
- GI50 [5]: 8.41 µM
- TGI [5]: 22 µM
- GI50 [6]: 7.87 µM
- TGI [6]: 17.4 µM
- GI50 [7]: 1.82 µM
- TGI [7]: 13.1 µM
- GI50 [8]: 8.01 µM
- TGI [8]: 18.6 µM
- GI50 [9]: 12.1 µM
- TGI [9]: 28.1 µM
- GI50 [10]: 0.973 µM
- TGI [10]: 19.4 µM
- GI50 [11]: 6.97 µM
- TGI [11]: 14.6 µM
- GI50 [12]: 16.1 µM
- TGI [12]: 28.7 µM
- GI50 [13]: 6.28 µM
- TGI [13]: 14 µM
- GI50 [14]: 10.7 µM
- TGI [14]: 28.7 µM
- GI50 [15]: 2.51 µM
- TGI [15]: 25.6 µM
- GI50 [16]: 11.5 µM
- TGI [16]: 27.6 µM
- GI50 [17]: 3.6 µM
- TGI [17]: 15.2 µM
- GI50 [18]: 10.5 µM
- TGI [18]: 27.9 µM
- GI50 [19]: 9.51 µM
- TGI [19]: 28.8 µM
- GI50 [20]: 7.3 µM
- TGI [20]: 29.3 µM
- GI50 [21]: 13.3 µM
- TGI [21]: 34.8 µM
- GI50 [22]: 7.64 µM
- TGI [22]: 24.3 µM
- GI50 [23]: 8.31 µM
- TGI [23]: 20.2 µM
- GI50 [24]: 7.61 µM
- TGI [24]: 15.9 µM
- GI50 [25]: 0.0413 µM
- TGI [25]: 3.87 µM
- GI50 [26]: 6.1 µM
- TGI [26]: 12.9 µM
- GI50 [27]: 9.16 µM
- TGI [27]: 16.9 µM
- GI50 [28]: 6.43 µM
- TGI [28]: 13.3 µM
- GI50 [29]: 13.4 µM
- TGI [29]: > 50 µM
- GI50 [30]: 9.59 µM
- TGI [30]: 25.7 µM
- GI50 [31]: 7.83 µM
- TGI [31]: 17.6 µM
- GI50 [32]: 13.6 µM
- TGI [32]: 39 µM
- GI50 [33]: 3.64 µM
- TGI [33]: > 50 µM
- GI50 [34]: 11.1 µM
- TGI [34]: 23.9 µM
- GI50 [35]: 14.2 µM
- TGI [35]: > 50 µM
- GI50 [36]: 9.55 µM
- TGI [36]: 21.6 µM
- GI50 [37]: 7.89 µM
- TGI [37]: 19.3 µM
- GI50 [38]: 10.1 µM
- TGI [38]: > 50 µM
- GI50 [39]: 20.9 µM
- TGI [39]: > 50 µM
- GI50 [40]: 9.03 µM
- TGI [40]: 19.4 µM
- GI50 [41]: 6.57 µM
- TGI [41]: 13.1 µM
- GI50 [42]: 10.2 µM
- TGI [42]: 20 µM
- GI50 [43]: 10.1 µM
- TGI [43]: 20.3 µM
- GI50 [44]: 5.41 µM
- TGI [44]: 11.9 µM
- GI50 [45]: 11.6 µM
- TGI [45]: 21.7 µM
- GI50 [46]: 5.97 µM
- TGI [46]: 12.7 µM
- GI50 [47]: 0.0869 µM
- TGI [47]: 11.9 µM
- GI50 [48]: 9.82 µM
- TGI [48]: 18.4 µM
- GI50 [49]: 23.3 µM
- TGI [49]: 45.5 µM
- GI50 [50]: 0.906 µM
- TGI [50]: 25.5 µM
- GI50 [51]: 5.35 µM
- TGI [51]: 28.7 µM
